{"source": "ChEMBL document CHEMBL2331210", "about": "“New 2-benzylsulfanyl-nicotinic acid based 1,3,4-oxadiazoles: their synthesis and biological evaluation” (2013)", "assay_type_in_all_cases": "functional", "key": {"[1]": {"system": "HOP-62", "assay": "Antitumor activity against human HOP62 cells assessed as cell growth at 0.1 uM", "settings": "read-out: Activity"}, "[2]": {"system": "Malme-3M", "assay": "Antitumor activity against human MALME-3M cells assessed as cell growth at 0.1 uM", "settings": "read-out: Activity"}, "[3]": {"system": "OVCAR-3", "assay": "Antitumor activity against human OVCAR3 cells assessed as cell growth at 0.1 uM", "settings": "read-out: Activity"}, "[4]": {"system": "Aspergillus clavatus", "assay": "Antimicrobial activity against Aspergillus clavatus MTCC 1323 assessed as growth inhibition measured after overnight incubation by broth dilution method"}, "[5]": {"system": "KM12", "assay": "Antitumor activity against human KM12 cells assessed as cell growth at 0.1 uM", "settings": "read-out: Activity"}, "[6]": {"system": "Mycobacterium tuberculosis", "assay": "Antitubercular activity against Mycobacterium tuberculosis H37Rv assessed as growth inhibition after 12 to 28 days by L.J. agar MIC method"}, "[7]": {"system": "MCF7", "assay": "Antitumor activity against human MCF7 cells assessed as cell growth at 0.1 uM", "settings": "read-out: Activity"}, "[8]": {"system": "TK-10", "assay": "Antitumor activity against human TK10 cells assessed as cell growth at 0.1 uM", "settings": "read-out: Activity"}, "[9]": {"system": "UACC-62", "assay": "Antitumor activity against human UACC62 cells assessed as cell growth at 0.1 uM", "settings": "read-out: Activity"}, "[10]": {"system": "BT-549", "assay": "Antitumor activity against human BT549 cells assessed as cell growth at 0.1 uM", "settings": "read-out: Activity"}, "[11]": {"assay": "Antitumor activity against human EKVX cells assessed as cell growth at 0.1 uM", "settings": "read-out: Activity"}, "[12]": {"system": "HL-60", "assay": "Antitumor activity against human HL60(TB) cells assessed as cell growth at 0.1 uM", "settings": "read-out: Activity"}, "[13]": {"system": "Candida albicans", "assay": "Antimicrobial activity against Candida albicans MTCC 227 assessed as growth inhibition measured after overnight incubation by broth dilution method"}, "[14]": {"system": "SK-MEL-28", "assay": "Antitumor activity against human SK-MEL-28 cells assessed as cell growth at 0.1 uM", "settings": "read-out: Activity"}, "[15]": {"system": "HCT-116", "assay": "Antitumor activity against human HCT116 cells assessed as cell growth at 0.1 uM", "settings": "read-out: Activity"}, "[16]": {"system": "ACHN", "assay": "Antitumor activity against human ACHN cells assessed as cell growth at 0.1 uM", "settings": "read-out: Activity"}, "[17]": {"system": "OVCAR-4", "assay": "Antitumor activity against human OVCAR4 cells assessed as cell growth at 0.1 uM", "settings": "read-out: Activity"}, "[18]": {"system": "RXF 393", "assay": "Antitumor activity against human RXF393 cells assessed as cell growth at 0.1 uM", "settings": "read-out: Activity"}, "[19]": {"system": "SK-OV-3", "assay": "Antitumor activity against human SKOV3 cells assessed as cell growth at 0.1 uM", "settings": "read-out: Activity"}, "[20]": {"system": "A549", "assay": "Antitumor activity against human A549/ATCC cells assessed as cell growth at 0.1 uM", "settings": "read-out: Activity"}, "[21]": {"system": "SN12C", "assay": "Antitumor activity against human SN12C cells assessed as cell growth at 0.1 uM", "settings": "read-out: Activity"}, "[22]": {"system": "OVCAR-5", "assay": "Antitumor activity against human OVCAR5 cells assessed as cell growth at 0.1 uM", "settings": "read-out: Activity"}, "[23]": {"system": "K562", "assay": "Antitumor activity against human K562 cells assessed as cell growth at 0.1 uM", "settings": "read-out: Activity"}, "[24]": {"system": "NCI-H23", "assay": "Antitumor activity against human NCI-H23 cells assessed as cell growth at 0.1 uM", "settings": "read-out: Activity"}, "[25]": {"system": "U-251", "assay": "Antitumor activity against human U251 cells assessed as cell growth at 0.1 uM", "settings": "read-out: Activity"}, "[26]": {"system": "NCI-H522", "assay": "Antitumor activity against human NCI-H522 cells assessed as cell growth at 0.1 uM", "settings": "read-out: Activity"}, "[27]": {"system": "NCI-H226", "assay": "Antitumor activity against human NCI-H226 cells assessed as cell growth at 0.1 uM", "settings": "read-out: Activity"}, "[28]": {"system": "HT-29", "assay": "Antitumor activity against human HT-29 cells assessed as cell growth at 0.1 uM", "settings": "read-out: Activity"}, "[29]": {"system": "Escherichia coli", "assay": "Antimicrobial activity against Escherichia coli MTCC 443 assessed as growth inhibition measured after overnight incubation by broth dilution method"}, "[30]": {"system": "IGROV-1", "assay": "Antitumor activity against human IGROV1 cells assessed as cell growth at 0.1 uM", "settings": "read-out: Activity"}, "[31]": {"system": "M14", "assay": "Antitumor activity against human M14 cells assessed as cell growth at 0.1 uM", "settings": "read-out: Activity"}, "[32]": {"system": "CAKI-1", "assay": "Antitumor activity against human CAKI-1 cells assessed as cell growth at 0.1 uM", "settings": "read-out: Activity"}}}
{"compound": "Cc1cnc(NC(=O)CSc2nnc(-c3cccnc3SCc3ccccc3)o2)s1", "values": [{"measurement": "growth at 0.1 µM", "setting": "[1]", "value": 81.1, "unit": "%"}, {"measurement": "growth at 0.1 µM", "setting": "[2]", "value": 100, "unit": "%"}, {"measurement": "growth at 0.1 µM", "setting": "[3]", "value": 82.2, "unit": "%"}, {"measurement": "MIC", "setting": "[4]", "value": 1000, "unit": "µg/mL"}, {"measurement": "growth at 0.1 µM", "setting": "[5]", "value": 44.9, "unit": "%"}, {"measurement": "growth inhibition (GI)", "setting": "[6]", "value": 99, "unit": "%"}, {"measurement": "MIC", "setting": "[6]; Mycobacterium tuberculosis, H37Rv", "value": 50, "unit": "µg/mL"}, {"measurement": "growth at 0.1 µM", "setting": "[7]", "value": 62.8, "unit": "%"}, {"measurement": "growth at 0.1 µM", "setting": "[8]", "value": 82.3, "unit": "%"}, {"measurement": "growth at 0.1 µM", "setting": "[9]", "value": 71.7, "unit": "%"}, {"measurement": "growth at 0.1 µM", "setting": "[10]", "value": 75.7, "unit": "%"}, {"measurement": "growth at 0.1 µM", "setting": "[11]", "value": 72.1, "unit": "%"}, {"measurement": "growth at 0.1 µM", "setting": "[12]", "value": 49.8, "unit": "%"}, {"measurement": "MIC", "setting": "[13]", "value": 250, "unit": "µg/mL"}, {"measurement": "growth at 0.1 µM", "setting": "[14]", "value": 106, "unit": "%"}, {"measurement": "growth at 0.1 µM", "setting": "[15]", "value": 82.4, "unit": "%"}, {"measurement": "growth at 0.1 µM", "setting": "[16]", "value": 66.5, "unit": "%"}, {"measurement": "growth at 0.1 µM", "setting": "[17]", "value": 67, "unit": "%"}, {"measurement": "growth at 0.1 µM", "setting": "[18]", "value": 73, "unit": "%"}, {"measurement": "growth at 0.1 µM", "setting": "[19]", "value": 96.2, "unit": "%"}, {"measurement": "growth at 0.1 µM", "setting": "[20]", "value": 51, "unit": "%"}, {"measurement": "growth at 0.1 µM", "setting": "[21]", "value": 46.3, "unit": "%"}, {"measurement": "growth at 0.1 µM", "setting": "[22]", "value": 87.5, "unit": "%"}, {"measurement": "growth at 0.1 µM", "setting": "[23]", "value": 77.2, "unit": "%"}, {"measurement": "growth at 0.1 µM", "setting": "[24]", "value": 80.6, "unit": "%"}, {"measurement": "growth at 0.1 µM", "setting": "[25]", "value": 72.8, "unit": "%"}, {"measurement": "growth at 0.1 µM", "setting": "[26]", "value": 18.5, "unit": "%"}, {"measurement": "growth at 0.1 µM", "setting": "[27]", "value": 70.2, "unit": "%"}, {"measurement": "growth at 0.1 µM", "setting": "[28]", "value": 81.6, "unit": "%"}, {"measurement": "MIC", "setting": "[29]", "value": 200, "unit": "µg/mL"}, {"measurement": "growth at 0.1 µM", "setting": "[30]", "value": 58.5, "unit": "%"}, {"measurement": "growth at 0.1 µM", "setting": "[31]", "value": 84.1, "unit": "%"}, {"measurement": "growth at 0.1 µM", "setting": "[32]", "value": 75.3, "unit": "%"}]}
